Reference: patent publication US9326511B2, “Methods of inhibiting microbial biofilms” (priority 2008, dated 2016)
Where two headings read alike, the source gives them in different places.

Tests used:
[1] = test system: S. aureus SH1000 biofilms; assay: Biofilm MIC and minimum biofilm eradication concentration, Calgary Biofilm Device; format: cell-based, Staphylococcus aureus; details: Staphylococcus aureus, SH1000BIOFILMS, biofilm MIC, read-out: bMIC
Method: (§1) Methods: MICs were determined for planktonic cultures by broth microdilution according to British Society for Antimicrobial Chemotherapy (BSAC) guidelines. Biofilm MICs (bMIC) and minimum biofilm eradication concentrations (MBECs) were determined using the Calgary biofilm device. The effect of Compound 10 on the viability of cold culture cells was determined by growing S. aureus SH1000 to early exponential phase at 37° C. and resuspending the cells in pre-chilled media, where they were maintained in the presence and absence of Compound 10 and control agents. The effect of Compound 10 on slow growing cells expressing the stringent response was also determined by growing cultures to early log phase and the stringent response induced by the addition of the isoleucyl-tRNA synthetase inhibitor mupirocin. Compound 10 and control agents were then added and samples recovered for viable cell determinations.
Biofilm MICs and minimum biofilm eradication concentrations (MBEC) were determined in the Calgary Biofilm Device (Nunc Inc, Roskilde, Denmark) as described by Miller et al., 2005. This involves the following steps. Aliquots (200 μL) of exponential phase cultures of strain SH1000 were added to each well of a 96-well microtitre tray. The lid assembly, which has 96 polystyrene pegs corresponding to each well, was then replaced and the system incubated for 24 hours at 37° C. on a rocking platform. Following this a biofilm of approximately 10^7 cfu matured on each peg. The lid was then washed twice in phosphate-buffered saline (PBS) to remove residual planktonic growth and then placed into a microtitre tray with fresh media containing doubling dilutions of the test antibiotic. The system was then incubated for 24 hours at 37° C. on a rocking platform. The MIC was defined as the lowest concentration of antibiotic completely inhibiting visible growth after this incubation. After the MIC was recorded, the lid assembly was again washed twice in PBS to remove planktonic cells and remaining antibiotic and then placed into fresh drug-free media. The system was incubated for a further 24 hours and the MBEC was defined as the lowest concentration of antibiotic completely inhibiting the re-establishment of planktonic growth.

[2] = test system: stringent S. aureus SH1000 cultures; assay: Time-kill against cultures expressing the stringent response (induced with mupirocin); format: cell-based, Staphylococcus aureus; details: for viability / bactericidal activity in time-kill (in words): stringent response induced with mupirocin, agents at 4×MIC
Method: as §1
When nutrients become limiting for growth bacteria adjust their metabolism from one that supports growth to one that provides for long survival in the absence of nutrients. In many bacteria a key facilitator of this physiological switch, known as the stringent response, is accumulation of guanosine […] and pentaphosphate (Traxler et al., 2008). The antibiotic mupirocin is a strong inducer of the stringent response in S. aureus and effectively causes starvation of charged isoleucyl tRNA by potent inhibition of isoleucy ItRNA synthetase (IRS) (Oliva et al., 2003). The activity of XF drugs against S. aureus SH1000 prevented from growing by the addition of mupirocin (Oliva et al., 2003), was therefore examined (FIG. 10). As an alternative method for arresting growth, bacteria were suspended in cold growth medium (Mascio et al., 2007) and the bactericidal activity of XF drugs was also determined under these conditions (FIG. 11).
The anti-staphylococcal activities of Compound 10, Compound 12 and a range of comparator agents against slow-growing cultures of Staphylococcus aureus were studied using standard time-kill methodology (Oliva et al. 2003, Hobbs et al. 2008). Staphylococcus aureus SH1000 cultures were grown to early exponential phase (OD600 nm of 0.2) in Mueller-Hinton broth (MHB) before being exposed to antibacterial agents at 4×MIC. An untreated culture served as the negative control. The experiments were undertaken in triplicate.
The antibiotic mupirocin is a strong inducer of the stringent response in S. aureus and causes starvation of charged isoleucyl tRNA by potent inhibition of isoleucyl tRNA synthetase (IRS) (Oliva et al. 2003, Cassels et al. 1995) Stringency was induced in SH1000 cultures by adding mupirocin (4 mg/L) to cells in the early exponential growth phase (OD600 nm of 0.2) (Oliva et al. 2003, Cassels et al. 1995). Cultures were incubated with mupirocin for 30 minutes before sampling began. Cultures were maintained at 37° C., and samples were taken at 30 minute intervals for 300 minutes, serially diluted in phosphate buffered saline (PBS) and diluted culture was spread on Mueller-Hinton agar and was incubated at 37° C. for 18-24 hours before the number of CFU were counted.

[3] = test system: E. coli cells; assay: Binding of compounds with bacterial cells (spectrofluorimetric analysis of cell lysates); details: 5 min incubation
Method: […] At the end of the incubation period, the cells were sedimented by centrifugation to remove the fraction of unbound test compound and the cell pellet was resuspended in 2 ml of 2% SDS to obtain cell lysates. After overnight incubation with SDS, the amount of cell-bound test compound was estimated by spectrofluorimetric analysis of the cell lysates. The concentration of the compounds in the cell lysates was calculated by measuring the intensities at the maximum of the emission fluorescence spectrum and interpolating the data on a calibration plot. The amount of cell-bound test compound was expressed as nmoles of compound per mg of cell protein. The protein concentration was determined by the method of Lowry (Lowry et al., 1951, J. Biol. Chem. 193:265-275).
All experiments were run in triplicate and the results represent the average of 3 determinations with standard deviations.

[4] = test system: S. aureus SH1000; assay: Planktonic MIC by broth microdilution (BSAC guidelines); format: cell-based, Staphylococcus aureus
Method: as §1

[5] = 24 h, S. aureus SH1000, Calgary Biofilm Device, 24 hours (Table 6)

Row | Structure (SMILES) | MIC [1, 5] [µg/mL] | viability / bactericidal activity in time-kill (in words) [2] | Bound compound ([3]; 0.01 μM compound, 0 washings) [nmoles/mg cell proteins] | Bound compound ([3]; 0.01 μM compound, 3 washings) [nmoles/mg cell proteins] | Bound compound ([3]; 0.1 μM compound, 0 washings) [nmoles/mg cell proteins] | Bound compound ([3]; 0.1 μM compound, 3 washings) [nmoles/mg cell proteins] | Bound compound ([3]; 0.5 μM compound, 0 washings) [nmoles/mg cell proteins] | Bound compound ([3]; 0.5 μM compound, 3 washings) [nmoles/mg cell proteins] | Bound compound ([3]; 1 μM compound, 0 washings) [nmoles/mg cell proteins] | Bound compound ([3]; 1 μM compound, 3 washings) [nmoles/mg cell proteins] | MIC ([4]; Staphylococcus aureus, planktonic S. aureus SH1000 (Table 6), read-out: MIC) [µg/mL] | MIC ([1]; S. aureus SH1000, Calgary device (Example H)) [µg/mL] | drop in viability ([2]; stringent response cultures, 4×MIC, within 1 hour) [log] | MIC ([4]; Staphylococcus aureus, planktonic S. aureus SH1000 (Table 5), read-out: MIC) [µg/mL] | MIC ([4]; planktonic S. aureus SH1000 (Table 6)) [µg/mL]
1 | C[N+](C)(C)CCCOc1cccc(-c2c3nc(cc4ccc([nH]4)c(-c4cccc(OCCC[N+](C)(C)C)c4)c4nc(cc5ccc2[nH]5)C=C4)C=C3)c1.[Cl-].[Cl-] [Compound 12, 5,15-bis-[3-(3-Trimethylammonio-propyloxy)-phenyl]-porphyrin dichloride] | 1 | retained potent bactericidal activity | 0.041 ± 0.02 | 0.021 ± 0.005 | 0.151 ± 0.02 | 0.089 ± 0.02 | 0.806 ± 0.14 | 0.622 ± 0.10 | 2.70 ± 0.30 | 1.930 ± 0.20 | 1 |  |  |  | 
2 | C[N+](C)(C)CCCOc1ccc(-c2c3nc(cc4ccc([nH]4)c(-c4ccc(OCCC[N+](C)(C)C)cc4)c4nc(cc5ccc2[nH]5)C=C4)C=C3)cc1.[Cl-].[Cl-] [Compound 10, 5,15-bis-[4-(3-Trimethylammonio-propyloxy)-phenyl]-porphyrin dichloride] | 1 | retained potent bactericidal activity | 0.026 ± 0.005 | 0.015 ± 0.0004 | 0.274 ± 0.05 | 0.078 ± 0.02 | 1.542 ± 0.350 | 0.334 ± 0.092 | 2.70 ± 0.354 | 1.278 ± 0.102 |  | 1 | 5 | 1 | 1
